Measured values as given in patent US7902373B2 (Pfizer Inc, priority 2006, dated 2011).

Biological target: human recombinant H-PGDS (Homo sapiens, UniProt O60760)
Assay: Fluorescence intensity h-PGDS TBA enzyme assay
Type: biochemical
Details: Examples up to 622 (and 3a, 3b)

Sequence of human recombinant H-PGDS (O60760 whole entry): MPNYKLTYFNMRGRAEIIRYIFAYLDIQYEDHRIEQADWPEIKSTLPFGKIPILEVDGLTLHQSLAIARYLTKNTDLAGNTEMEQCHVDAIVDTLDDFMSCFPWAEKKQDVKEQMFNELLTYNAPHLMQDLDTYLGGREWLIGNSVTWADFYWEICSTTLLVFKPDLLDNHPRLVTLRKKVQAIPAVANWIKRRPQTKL

Row | Structure (SMILES) | IC50
1 | O=C(NC1CCN(c2ncccc2C(=O)NC2Cc3ccccc3C2)CC1)c1ccc(-c2cccc(F)c2)nc1 [Example 72, N-(2,3-Dihydro-1H-inden-2-yl)-2-[4-({[6-(3-fluorophenyl)pyridin-3-yl]carbonyl}amino)piperidin-1-yl]nicotinamide] | 4.97 nM
2 | COCc1cc(N2CCC(NC(=O)c3ccc(-c4cccc(F)c4)nc3)CC2)nc(-c2csc(C)n2)n1 [Example 73, 6-(3-Fluorophenyl)-N-{1-[6-(methoxymethyl)-2-(2-methyl-13-thiazol-4-yl)pyrimidin-4-yl]piperidin-4-yl}nicotinamide] | 2.89 nM
3 | O=C(NC1CCN(c2ncccc2C(=O)c2ccccn2)CC1)c1ccc(-c2cccc(F)c2)nc1 [Example 74, 6-(3-Fluorophenyl)-N-{1-[3-(pyridin-2-ylcarbonyl)pyridin-2-yl]piperidin-4-yl}nicotinamide] | 0.293 nM
4 | O=C(NC1CCN(c2ncccc2C(=O)c2nccs2)CC1)c1ccc(-c2cccc(F)c2)nc1 [Example 75, 6-(3-Fluorophenyl)-N-{1-[3-(1,3-thiazol-2-ylcarbonyl)pyridin-2-yl]piperidin-4-yl}nicotinamide] | 0.314 nM
5 | CC(=O)c1cc(C#N)c(N2CCC(NC(=O)c3ccc(-c4cccc(F)c4)nc3)CC2)nc1C [Example 76, N-[1-(5-Acetyl-3-cyano-6-methylpyridin-2-yl)piperidin-4-yl]-6-(3-fluorophenyl)nicotinamide] | 1.35 nM
6 | N#Cc1ccccc1C(=O)c1cccnc1N1CCC(NC(=O)c2ccc(-c3cccc(F)c3)nc2)CC1 [Example 77, N-{1-[3-(2-Cyanobenzoyl)pyridin-2-yl]piperidin-4-yl}-6-(3-fluorophenyl)nicotinamide] | 0.425 nM
7 | COC(=O)c1cnc(N)nc1N1CCC(NC(=O)c2ccc(-c3cccc(F)c3)nc2)CC1 [Example 78, Methyl 2-amino-4-[4-({[6-(3-fluorophenyl)pyridin-3-yl]carbonyl}amino)piperidin-1-yl]pyrimidine-5-carboxylate] | 0.148 nM
8 | O=C(NC1CCN(c2nccnc2Cc2ccccc2)CC1)c1ccc(-c2cccc(F)c2)nc1 [Example 79, N-[1-(3-Benzylpyrazin-2-yl)piperidin-4-yl]-6-(3-fluorophenyl)nicotinamide] | 2.28 nM
9 | CNC(=O)c1ccc(N2CCC(NC(=O)c3ccc(-c4cccc(F)c4)nc3)CC2)nn1 [Example 80, 6-[4-({[6-(3-Fluorophenyl)pyridin-3-yl]carbonyl}amino)piperidin-1-yl]-N-methylpyridazine-3-carboxamide] | 0.408 nM
10 | CCN1CCCC1CNC(=O)c1ccc(N2CCC(NC(=O)c3ccc(-c4cccc(F)c4)nc3)CC2)nn1 (stereo not drawn) [Example 81, N-[(1-Ethylpyrrolidin-2-yl)methyl]-6-[4-({[6-(3-fluorophenyl)pyridin-3-yl]carbonyl}amino)piperidin-1-yl]pyridazine-3-carboxamide] | 0.947 nM
11 | CCCN(C)C(=O)c1ccc(N2CCC(NC(=O)c3ccc(-c4cccc(F)c4)nc3)CC2)nn1 [Example 82, 6-[4-({[6-(3-Fluorophenyl)pyridin-3-yl]carbonyl}amino)piperidin-1-yl]-N-methyl-N-propylpyridazine-3-carboxamide] | 1.05 nM
12 | CCNC(=O)c1ccc(N2CCC(NC(=O)c3ccc(-c4cccc(F)c4)nc3)CC2)nn1 [Example 83, N-Ethyl-6-[4-({[6-(3-fluorophenyl)pyridin-3-yl]carbonyl}amino)piperidin-1-yl]pyridazine-3-carboxamide] | 0.37 nM
13 | O=C(NC1CCN(c2ccc(C(=O)NCCN3CCOCC3)nn2)CC1)c1ccc(-c2cccc(F)c2)nc1 [Example 84, 6-[4-({[6-(3-Fluorophenyl)pyridin-3-yl]carbonyl}amino)piperidin-1-yl]-N-(2-morpholin-4-ylethyl)pyridazine-3-carboxamide] | 0.635 nM
14 | O=C(NC1CCN(c2ccc(C(=O)Nc3ccon3)nn2)CC1)c1ccc(-c2cccc(F)c2)nc1 [Example 85, 6-[4-({[6-(3-Fluorophenyl)pyridin-3-yl]carbonyl}amino)piperidin-1-yl]-N-isoxazol-3-ylpyridazine-3-carboxamide] | 0.72 nM
15 | Cc1noc(NC(=O)c2ccc(N3CCC(NC(=O)c4ccc(-c5cccc(F)c5)nc4)CC3)nn2)c1C [Example 86, N-(3,4-Dimethylisoxazol-5-yl)-6-[4-({[6-(3-fluorophenyl)pyridin-3-yl]carbonyl}amino)piperidin-1-yl]pyridazine-3-carboxamide] | 0.876 nM
16 | CCN1CCN(C(=O)c2ccc(N3CCC(NC(=O)c4ccc(-c5cccc(F)c5)nc4)CC3)nn2)CC1 [Example 87, N-(1-{6-[(4-Ethylpiperazin-1-yl)carbonyl]pyridazin-3-yl}piperidin-4-yl)-6-(3-fluorophenyl)nicotinamide] | 0.538 nM
17 | Cc1nn(C)c(C)c1NC(=O)c1ccc(N2CCC(NC(=O)c3ccc(-c4cccc(F)c4)nc3)CC2)nn1 [Example 89, 6-[4-({[6-(3-Fluorophenyl)pyridin-3-yl]carbonyl}amino)piperidin-1-yl]-N-(1,3,5-trimethyl-1H-pyrazol-4-yl)pyridazine-3-carboxamide] | 0.365 nM
18 | CCC(CO)n1cnc2c(N3CCC(NC(=O)c4ccc(-c5cccc(F)c5)nc4)CC3)ncnc21 (stereo not drawn) [Example 90, 6-(3-Fluorophenyl)-N-(1-{9-[1-(hydroxymethyl)propyl]-9H-purin-6-yl}piperidin-4-yl)nicotinamide] | 0.305 nM

Row | Structure (SMILES) | IC50
19 | COc1ccc2oc(N3CCC(NC(=O)c4ccc(-c5cccc(F)c5)nc4)CC3)nc2c1 [Example 91, 6-(3-Fluorophenyl)-N-[1-(5-methoxy-13-benzoxazol-2-yl)piperidin-4-yl]nicotinamide] | 0.603 nM
20 | O=C(NC1CCN(c2nnnn2-c2ccc3c(c2)CCC3)CC1)c1ccc(-c2cccc(F)c2)nc1 [Example 92, N-{1-[1-(2,3-Dihydro-1H-inden-5-yl)-1H-tetrazol 5-yl]piperidin-4-yl}-6-(3-fluorophenyl)nicotinamide] | 5.15 nM
21 | C=CCC(C)(C)c1nc2c(N3CCC(NC(=O)c4ccc(-c5cccc(F)c5)nc4)CC3)ncnc2n1C [Example 93, N-{1-[8-(1,1-Dimethylbut-3-en-1-yl)-9-methyl-9H-purin-6-yl]piperidin-4-yl}-6-(3-fluorophenyl)nicotinamide] | 17.9 nM
22 | O=C(NC1CCN(c2nnnn2-c2ccccc2F)CC1)c1ccc(-c2cccc(F)c2)nc1 [Example 94, 6-(3-Fluorophenyl)-N-{1-[1-(2-fluorophenyl)-1H-tetrazol-5-yl]piperidin-4-yl}nicotinamide] | 0.426 nM
23 | Cc1ccc(-n2nnnc2N2CCC(NC(=O)c3ccc(-c4cccc(F)c4)nc3)CC2)cc1 [Example 95, 6-(3-Fluorophenyl)-N-{1-[1-(4-methylphenyl)-1H-tetrazol-5-yl]piperidin-4-yl}nicotinamide] | 0.764 nM
24 | COc1ccccc1Cn1nnnc1N1CCC(NC(=O)c2ccc(-c3cccc(F)c3)nc2)CC1 [Example 96, 6-(3-Fluorophenyl)-N-{1-[1-(2-methoxybenzyl)-1H-tetrazol-5-yl]piperidin-4-yl}nicotinamide] | 1.19 nM
25 | CC(C)n1nnnc1N1CCC(NC(=O)c2ccc(-c3cccc(F)c3)nc2)CC1 [Example 97, 6-(3-Fluorophenyl)-N-[1-(1-isopropyl-1H-tetrazol-5-yl)piperidin-4-yl]nicotinamide] | 0.319 nM
26 | CCOC(=O)c1cccc(-n2nnnc2N2CCC(NC(=O)c3ccc(-c4cccc(F)c4)nc3)CC2)c1 [Example 98, Ethyl 3-{5-[4-({[6-(3-fluorophenyl)pyridin-3-yl]carbonyl}amino)piperidin-1-yl]-1H-tetrazol-1-yl}benzoate] | 3.7 nM
27 | O=C(NC1CCN(c2nnnn2CC2CC2)CC1)c1ccc(-c2cccc(F)c2)nc1 [Example 99, N-{1-[1-(Cyclopropylmethyl)-1H-tetrazol-5-yl]piperidin-4-yl}-6-(3-fluorophenyl)nicotinamide] | 2.08 nM
28 | CC(C)OC(=O)Cn1nnnc1N1CCC(NC(=O)c2ccc(-c3cccc(F)c3)nc2)CC1 [Example 100, Isopropyl {5-[4-({[6-(3-fluorophenyl)pyridin-3-yl]carbonyl}amino)piperidin-1-yl]-1H-tetrazol-1-yl}acetate] | 1.53 nM
29 | COCC(C)n1nnnc1N1CCC(NC(=O)c2ccc(-c3cccc(F)c3)nc2)CC1 (stereo not drawn) [Example 101, 6-(3-fluorophenyl)-N-{1-[1-(2-methoxy-1-methylethyl)-1H-tetrazol-5-yl]piperidin-4-yl}nicotinamide] | 1.4 nM
30 | N#Cc1ccc(Cn2nnnc2N2CCC(NC(=O)c3ccc(-c4cccc(F)c4)nc3)CC2)cc1 [Example 102, N-{1-[1-(4-Cyanobenzyl)-1H-tetrazol-5-yl]piperidin-4-yl}-6-(3-fluorophenyl)nicotinamide] | 0.943 nM
31 | CCOc1cccc(-n2nnnc2N2CCC(NC(=O)c3ccc(-c4cccc(F)c4)nc3)CC2)c1 [Example 103, N-{1-[1-(3-Ethoxyphenyl)-1H-tetrazol-5-yl]piperidin-4-yl}-6-(3-fluorophenyl)nicotinamide] | 2.15 nM
32 | C[C@H](c1ccccc1)n1nnnc1N1CCC(NC(=O)c2ccc(-c3cccc(F)c3)nc2)CC1 [Example 104, 6-(3-Fluorophenyl)-N-(1-{1-[(1R)-1-phenylethyl]-1H-tetrazol-5-yl}piperidin-4-yl)nicotinamide] | 3.18 nM
33 | O=C(NC1CCN(c2ncnc3c2ncn3CC(F)(F)F)CC1)c1ccc(-c2cccc(F)c2)nc1 [Example 106] | 0.873 nM
34 | O=C(NC1CCN(c2ncnc3c2ncn3CCN2CCCCC2)CC1)c1ccc(-c2cccc(F)c2)nc1 [Example 107, 6-(3-Fluorophenyl)-N-{1-[9-(2-piperidin-1-ylethyl)-9H-purin-6-yl]piperidin-4-yl}nicotinamide] | 0.804 nM
35 | COc1cccc(Cn2nnnc2N2CCC(NC(=O)c3ccc(-c4cccc(F)c4)nc3)CC2)c1 [Example 108, 6-(3-Fluorophenyl)-N-{1-[1-(3-methoxybenzyl)-1H-tetrazol-5-yl}piperidin-4-yl)nicotinamide] | 1.29 nM
36 | Cn1c(-c2cccc(O)c2)nc2c(N3CCC(NC(=O)c4ccc(-c5cccc(F)c5)nc4)CC3)ncnc21 [Example 109, 6-(3-Fluorophenyl)-N-{1-[8-(3-hydroxyphenyl)-9-methyl-9H-purin-6-yl]piperidin-4-yl}nicotinamide] | 2.74 nM
